Data on twelve molecules can be found in patent US6432988B1, “2-arylalkylthio -imidazoles, 2-arylalkenyl -thio -imidazoles and 2-arylalkinyl -thio -imidazoles as anti -inflammatory substances and substances inhibiting the release of cytokine” (Merckle GmbH, priority 1998, dated 2002).

For test [1], the system named is TNF-α. The test can be described thus: Inhibition of LPS-stimulated cytokine secretion in whole blood (TNF-α). The note with it: human whole blood, LPS 1 μg/ml, 4 h; read-out: TNFα, Whole blood method (IC50 values). In kind it is cell-based. Here is the method: (§1) Test System for Determining the Inhibition of LPS-stimulated Cytokine Secretion (TNF-α, IL-1β) in Whole Blood
(§2) Fresh, human whole blood from healthy donors is preincubated with test substance for 25 min at 37° C. The cells are stimulated with LPS (1 μg/ml) for 4 h at 37° C. In the plasma supernatant which is isolated by centrifugation, the cytokines TNF-α, IL-1β, IL-6 and IL-8 are quantified by means of ELISA (see Inflamm. Res. 44, 269-274 (1995)).

Test [2] deals with IL-1β. The test can be described thus: Inhibition of LPS-stimulated cytokine secretion in whole blood (IL-1β). The class given is cell-based. The note with it: human whole blood, LPS 1 μg/ml, 4 h; read-out: IL-1β, Whole blood method (IC50 values). Here is the method: as §1, §2
Test [3] deals with IL-1β. Briefly: Inhibition of LPS-stimulated cytokine secretion in human PBMC (IL-1β). In kind it is cell-based. As to conditions: LPS 1 μg/ml, 24 h. On the procedure: (§3) Test System for Determining the Inhibition of LPS-stimulated Cytokine Secretion (TNF-α, IL-1β)
(§4) Human PBMC (peripheral blood mononuclear cells) are preincubated with test substance for 5 min at 37° C., then stimulated with LPS (1 μg/ml) for 24 h at 37° C. The cytokines TNF-α, IL-1β, IL-6 and IL-8 are Determined by means of ELISA (see Blood 75, 40-47 (1990)).

Test [4] relates to TNF-α. The test can be described thus: Inhibition of LPS-stimulated cytokine secretion in human PBMC (TNF-α). In kind it is cell-based. As to conditions: LPS 1 μg/ml, 24 h, read-out: TNFα, PBMC (IC50 values). Here is the method:
as §3, §4

The next test concerns the target T1, 5-lipoxygenase (5-LO) (Homo sapiens, UniProt P09917).
T1 construct: The source used for the 5-lipoxygenase is human granulocytes; endogenous in cells; host or cells: human granulocytes isolated from heparinised blood
T1 sequence (P09917 1-674): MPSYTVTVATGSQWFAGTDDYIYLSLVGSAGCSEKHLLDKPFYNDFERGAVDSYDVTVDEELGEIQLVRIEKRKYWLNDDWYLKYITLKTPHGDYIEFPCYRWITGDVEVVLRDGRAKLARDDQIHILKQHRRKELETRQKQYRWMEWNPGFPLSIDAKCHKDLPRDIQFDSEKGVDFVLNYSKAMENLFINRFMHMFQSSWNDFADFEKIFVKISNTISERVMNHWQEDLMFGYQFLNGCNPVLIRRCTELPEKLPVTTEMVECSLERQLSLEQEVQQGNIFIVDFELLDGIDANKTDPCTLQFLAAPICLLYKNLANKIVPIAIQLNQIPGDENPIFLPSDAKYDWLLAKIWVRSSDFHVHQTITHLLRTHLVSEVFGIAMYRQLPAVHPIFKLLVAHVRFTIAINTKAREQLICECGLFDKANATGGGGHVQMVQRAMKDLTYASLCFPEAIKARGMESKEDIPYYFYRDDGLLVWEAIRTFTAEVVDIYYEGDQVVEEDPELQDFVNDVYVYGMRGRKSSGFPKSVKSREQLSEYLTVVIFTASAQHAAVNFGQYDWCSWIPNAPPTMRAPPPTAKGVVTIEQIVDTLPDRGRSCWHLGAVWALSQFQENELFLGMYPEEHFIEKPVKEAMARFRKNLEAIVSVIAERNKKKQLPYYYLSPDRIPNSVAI
Briefly: Inhibition of 5-lipoxygenase: LTB4 formation in human granulocytes stimulated with calcium ionophore A 23187, ELISA. The note with it: A 23187, LTB4 ELISA. The class given is cell-based. Here is the method: Test System for Determining the Inhibition of 5-lipoxygenase (5-LO)
The source used for the 5-lipoxygenase is human granulocytes. By stimulation with calcium ionophore A 23187, LTB4 (leukotriene B4) is formed from endogenous arachidonic acid. The granulocytes are isolated and the enzyme reaction is carried out according to known processes (see Arch. Pharm. Pharm. Med. Chem. 330, 307-312 (1997)).
The blood protected from clotting by heparin is centrifuged on a discontinuous Percoll® gradient and the granulocyte layer is removed by pipette. After lysis of the erythrocytes, the granulocytes are washed a number of times and then adjusted to a specific cell count. The enzyme reaction is then started in the presence or absence of the test substance after addition of Ca^2+ using calcium ionophore A 23187. The synthesis of the leukotrienes is stopped after 1.5 minutes. The samples are centrifuged off and the supernatant is diluted. LTB4 is determined quantitatively by means of ELISA.
A general note: In an ELISA, binding on a coated surface is turned into a signal by an enzyme label.

Another test deals with T2, Cyclooxygenase-1 (COX-1) (Homo sapiens, UniProt P23219).
T2 construct: endogenous in cells; host or cells: human platelets
Briefly: Inhibition of cyclooxygenase-1: prostaglandin E2 formed by human platelets after calcium ionophore, ELISA. The note with it: PGE2 ELISA. The class given is cell-based. Here is the method:
Test System for Determining the Inhibition of Cyclooxygenase-1 (COX-1)
In this test system, the amount of prostaglandin E2 formed by human platelets after addition of calcium ionophore is determined by means of ELISA. The platelets are obtained here after centrifugation on a discontinuous Percoll® gradient. The enzyme reaction and the determination of the metabolites formed are in principle carried out as in the determination of the inhibition of 5-lipoxygenase. Differences exist with respect to the incubation time. Furthermore, the addition of a thromboxane synthase inhibitor is necessary (see Arch. Pharm. Pharm. Med. Chem. 330, 307-312 (1997)).

In a further test the target is T3, Cyclooxygenase-2 (COX-2) (Ovis aries, UniProt P79208).
T3 construct: COX-2 (from sheep placenta) is preincubated with test substance for 10 min at 4° C; from tissue; host or cells: sheep placenta
T3 sequence (P79208 17-603): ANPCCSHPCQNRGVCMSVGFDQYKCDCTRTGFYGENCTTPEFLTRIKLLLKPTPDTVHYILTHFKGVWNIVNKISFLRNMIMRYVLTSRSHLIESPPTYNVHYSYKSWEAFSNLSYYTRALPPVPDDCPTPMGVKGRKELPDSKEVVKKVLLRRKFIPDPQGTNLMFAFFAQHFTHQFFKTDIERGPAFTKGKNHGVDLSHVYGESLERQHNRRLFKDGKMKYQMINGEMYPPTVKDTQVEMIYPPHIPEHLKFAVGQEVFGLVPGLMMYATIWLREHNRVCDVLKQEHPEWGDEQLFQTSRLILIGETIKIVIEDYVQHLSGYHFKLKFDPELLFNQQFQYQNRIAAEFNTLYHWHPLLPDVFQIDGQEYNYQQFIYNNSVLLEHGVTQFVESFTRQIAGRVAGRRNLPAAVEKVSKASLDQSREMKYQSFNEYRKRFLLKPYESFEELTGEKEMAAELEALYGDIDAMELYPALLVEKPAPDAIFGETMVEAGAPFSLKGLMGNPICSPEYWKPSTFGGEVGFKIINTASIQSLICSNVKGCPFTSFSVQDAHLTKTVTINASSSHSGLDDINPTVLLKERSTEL
Briefly: Inhibition of cyclooxygenase-2: COX-2 from sheep placenta, arachidonic acid, PGE2 by ELISA. The class given is biochemical. As to conditions: arachidonic acid 5 μm. Here is the method:
Test System for Determining the Inhibition of Cyclooxygenase-2 (COX-2)
COX-2 (from sheep placenta) is preincubated with test substance for 10 min at 4° C., then stimulated with arachidonic acid (5 μm) at 25° C. for 10 min. […] Determination is carried out 3 dilutions (10^−7, 10^−6, 10^−5 molar). The PGE2 concentrations are quantified by means of ELISA (see Mitchell J. A. et al. Proc. Nat. Acad. Sci 90: 11693-11697 (1993)).

Structures are written as SMILES.

T2 sequence (P23219 24-599): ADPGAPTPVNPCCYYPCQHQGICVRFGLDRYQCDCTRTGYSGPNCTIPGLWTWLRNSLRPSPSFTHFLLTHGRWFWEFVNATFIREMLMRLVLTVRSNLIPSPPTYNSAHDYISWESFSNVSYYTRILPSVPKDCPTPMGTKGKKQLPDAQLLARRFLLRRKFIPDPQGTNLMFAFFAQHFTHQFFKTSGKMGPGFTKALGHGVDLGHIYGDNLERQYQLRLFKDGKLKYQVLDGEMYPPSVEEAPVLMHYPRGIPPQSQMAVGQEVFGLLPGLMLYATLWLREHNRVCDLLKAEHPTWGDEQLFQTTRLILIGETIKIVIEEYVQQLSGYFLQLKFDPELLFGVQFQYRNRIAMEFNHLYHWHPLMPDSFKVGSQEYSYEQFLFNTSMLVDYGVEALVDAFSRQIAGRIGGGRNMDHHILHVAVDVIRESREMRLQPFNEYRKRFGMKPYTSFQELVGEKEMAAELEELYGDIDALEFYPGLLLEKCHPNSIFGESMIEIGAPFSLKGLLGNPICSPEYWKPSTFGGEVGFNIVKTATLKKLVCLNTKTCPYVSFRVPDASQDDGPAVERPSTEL

On to `C[S+]([O-])c1ccccc1CSc1nc(-c2ccncc2)c(-c2ccc(F)cc2)[nH]1` (stereo not shown) [Example 10, 5-(4-Fluorophenyl)-2-[(2-methylsulfinylphenyl)methylthio]-4-(4-pyridyl)-1H-imidazole], for which the results for the IC50 in the test on TNF-α [1] and in the test on IL-1β [2] were 48 µM and 4 µM, respectively.

For the molecule `C[S+]([O-])c1cccc(CSc2nc(-c3ccncc3)c(-c3ccc(F)cc3)[nH]2)c1` (stereo not shown) [Example 9, 5-(4-Fluorophenyl)-2-[(3-methylsulfinylphenyl)methylthio]-4-(4-pyridyl)-1H-imidazole], the values for the IC50 in the test with TNF-α [1] and in the test on IL-1β [2] were 24 µM and 1.9 µM, respectively.

Regarding `CS(=O)(=O)c1ccc(CCSc2nc(-c3ccncc3)c(-c3ccc(F)cc3)[nH]2)cc1` [Example 7, 5-(4-Fluorophenyl)-2-[2-(4-methylsulfonylphenyl)ethylthio]-4-(4-pyridyl)imidazole], the IC50 (usually the midpoint of a concentration-inhibition curve) with IL-1β [3] worked out at 21 µM; with TNF-α [4] it was 14 µM.

Take `C[S+]([O-])c1ccc(O)c(CSc2nc(-c3ccncc3)c(-c3ccc(F)cc3)[nH]2)c1` (stereo not shown) [Example 16, 2-[(2-Hydroxy-5-methylsulfinylphenyl)methylthio]-5-(4-fluorophenyl)-4-(4-pyridyl)-1H-imidazole]: the IC50 came to 76 µM in the test with TNF-α [1], 0.64 µM with IL-1β [3], 13 µM in the test on IL-1β [2] and 4.2 µM in the test on TNF-α [4].

For `CSc1ccc(CCSc2nc(-c3ccncc3)c(-c3ccc(F)cc3)[nH]2)cc1` [Example 6, 2-[2-(4-Methylthiophenyl)ethylthio]-5-(4-fluorophenyl)4-(4-pyridyl)imidazole], the IC50 is below 0.01 µM at 5-lipoxygenase (5-LO); 58 µM in the test with IL-1β [3]; 6.5 µM at Cyclooxygenase-1 (COX-1); 3 µM on Cyclooxygenase-2 (COX-2); 6 µM with TNF-α [4].

As for `C[S+]([O-])c1ccc(CSc2nc(-c3ccncc3)c(-c3ccc(F)cc3)[nH]2)cc1` (stereo not shown) [Example 2, 5-(4-Fluorophenyl)-2-[(4-methylsulfinyl)benzylthio]-4-(4-pyridyl)imidazole], the IC50 stood at 10 µM at 5-lipoxygenase (5-LO); 16 µM with TNF-α [1]; 2.3 µM in the test on IL-1β [3]; 6.3 µM against Cyclooxygenase-2 (COX-2); 2.9 µM in the test with IL-1β [2]; 6.8 µM in the test on TNF-α [4].

Regarding `NS(=O)(=O)c1ccc(CCSc2nc(-c3ccncc3)c(-c3ccc(F)cc3)[nH]2)cc1` [Example 4, 2-[2-(4-Aminosulfonylphenyl)ethylthio]-5-(4-fluorophenyl)-4-(4-pyridyl)imidazole], the IC50 amounted to 0.085 µM on 5-lipoxygenase (5-LO); 9.3 µM with IL-1β [3]; 2.2 µM at Cyclooxygenase-1 (COX-1); 7 µM at Cyclooxygenase-2 (COX-2); 3.3 µM in the test on TNF-α [4].

On to `CS(=O)(=O)c1ccc(CSc2nc(-c3ccncc3)c(-c3ccc(F)cc3)[nH]2)cc1` [Example 3, 5-(4-Fluorophenyl)-2-[(4-methylsulfonyl)benzylthio]-4-(4-pyridyl)imidazole], for which the IC50 on 5-lipoxygenase (5-LO) is 0.8 µM; in the test with TNF-α [1], 19 µM; with IL-1β [3] it was above 100 µM; in the test on IL-1β [2], 1.2 µM; with TNF-α [4], 4 µM.

In the case of `NS(=O)(=O)c1ccc(CSc2nc(-c3ccncc3)c(-c3ccc(F)cc3)[nH]2)cc1` [Example 5, 2-[(4-Aminosulfonylphenyl)methylthio]-5-(4-fluorophenyl)-4-(4-pyridyl)imidazole], the IC50 on 5-lipoxygenase (5-LO) is 2.8 µM; in the test on IL-1β [3] it was 18 µM; on Cyclooxygenase-1 (COX-1), 0.038 µM; on Cyclooxygenase-2 (COX-2), 10 µM; in the test on TNF-α [4], 3.1 µM.

For the molecule `C[S+]([O-])c1cc(CSc2nc(-c3ccncc3)c(-c3ccc(F)cc3)[nH]2)ccc1O` (stereo not shown) [Example 12, 5-(4-Fluorophenyl)-2-[(4-hydroxy-3-methylsulfinylphenyl)methylthio]-4-(4-pyridyl)-1H-imidazole], the IC50 with TNF-α [1] was 9 µM; with IL-1β [2], 12.1 µM.

Take `CS(=O)(=O)c1ccc(-c2nc(-c3ccc(F)cc3)c(-c3ccncc3)[nH]2)cc1` [Reference B, reference compound]: the IC50 with IL-1β [3] is 7.5 µM.

In the case of `CSc1ccc(CSc2nc(-c3ccncc3)c(-c3ccc(F)cc3)[nH]2)cc1` [Example 1, 5-(4-Fluorophenyl)-2-[(4-methylthio)benzylthio]-4-(4-pyridyl)imidazole], the IC50 is 0.065 µM at 5-lipoxygenase (5-LO); 30 µM with TNF-α [1]; above 100 µM in the test with IL-1β [3]; 3.4 µM on Cyclooxygenase-1 (COX-1); 6.1 µM against Cyclooxygenase-2 (COX-2); 30 µM with IL-1β [2]. Moreover, the IC50 in the test with TNF-α [4] amounted to 10 µM.
